# From patent US10266520B2, “Bisamidinium-based inhibitors for the treatment of myotonic dystrophy” (The Board of Trustees of the University of Illinois, priority 2014, dated 2019)
# Target: MBNL1-(CUG)16 complex
# Assay: EMSA inhibition of the MBNL1-(CUG)16 complex
# Type: biochemical
# Conditions: EMSA; KI=IC50×KD/[protein]total; read-out: KI, apparent inhibition constant, MBNL1-(CUG)16 complex
# Experimental: FIG. 1A-B. Determination of inhibition constants, KI, by EMSA. (a) Representative gels showing the release of (CUG)16 at different ligand concentrations. Top band is the MBNL1-(CUG)16 complex, the bottom band is the free (CUG)16. (b) IC50 values were obtained by plotting the RNA fraction bound versus ligand concentrations. The apparent inhibition constant (KI) was calculated using the equation: KI=IC50×KD/[protein]total, where KD is the dissociation constant of the MBNL1-RNA complex and [protein] is at least 7-fold greater than the KD. Error bars represent standard deviation of three independent experiments.
# An electrophoretic mobility shift assay (EMSA) was employed to determine the in vitro inhibition of MBNL1-rCUG^exp complex by monomer 1a and dimers 2a-b (FIG. 1). This study used (CUG)16, which can form a hairpin structure containing a maximum of 8 U-U mismatches. […] Likely, a 1:1 complex was formed. In this study, a truncated MBNL1 (1-272 amino acids) containing four zinc finger motifs of MBNL1 and a hexahistidine tag (C-terminus) was employed. This MBNL1 construct and the full-length MBNL1 have the similar affinities to rCUG repeats.
# To determine the inhibition constant of bivalent ligands 2a and 2b, the MBNL1-(CUG)16 mixture, in which ca. 50% of the RNA is free, was incubated with various concentrations of ligand (FIG. 1a). The dimer concentrations were not raised to higher than 10 μM due to the aggregation on the gel at high concentrations. As the concentration of ligand increased, more RNA was released from the complex with MBNL protein. By fitting the plot of bound RNA fractions versus ligand concentrations with an appropriate equation, the IC50 value was determined (FIG. 1b).
# (CUG)16 RNA was labeled with [γ-^32P]-ATP using T4 poly-nucleotide kinase (New England Biolabs). Labeled RNA was purified by phenol extraction and ethanol precipitation. Labeled RNA was heated at 95° C. for 5 min, then placed on ice for 10 min and diluted in protein binding buffer (175 mM NaCl, 5 mM MgCl2, 20 mM Tris-HCl (pH 8), 1.25 mM 2-mercapto-ethanol (BME), 12.5% glycerol, 2 mg/ml bovine serum albumin (BSA), 0.1 mg/ml heparin, 0.05% or 0.1% Triton X). For MBNL1-(CUG)16 binding study, MBNL1 was serially diluted by a factor of 3 in protein binding buffer. To each solution was added labeled RNA, so that the final concentration of RNA was 0.2 nM. The resulting mixtures were incubated at room temperature for 10 min and loaded onto a 6% polyacrylamide gel (80:1) at 4° C. The gel was run for 2 h at 180 V in Tris-Borate 0.5× buffer (pH 8.2-8.3). Gels were dried at 80° C. under high vacuum for 2 h, developed overnight in phosphor exposure cassette, and visualized on a Molecular Dynamics Storm PhosphorImager. The KD (1:1 stoichiometry assumption) was obtained by fitting the normalized fraction RNA bound versus the concentration of protein using the equation: Fraction RNA bound=Bmax×[MBNL1]total^h/(KD^h+MBNL1]total^h) where Bmax is maximum fraction RNA bound, h is a Hill slope. Protein concentration in reaction mixture was larger than 10-fold excess over RNA concentration. Data is illustrated in FIGS. 6 and 7.
compound,measurement,value
N=C(NCCCCNc1nc(N)nc(N)n1)c1ccc(C(=N)NCCCCNc2nc(N)nc(NCCCn3cc(CCNc4nc(N)nc(NCCCCNC(=N)c5ccc(C(=N)NCCCCNc6nc(N)nc(N)n6)cc5)n4)nn3)n2)cc1 [Compound 2b],Ki,36 ± 12 nM
